In the test the test system is inflammatory cells, mast cells, eosinophils. Description: Skin staining (H&E, Toluidine blue, Congo red), atopic dermatitis model. Format: in vivo, NC/Nga mice. Here is the method:
8-week-old NC/Nga mice (20-25 g) were purchased from Chungang Lab. Animal. After adapting for 1 week, the NC/Nga mouse was anesthetized with 90% ethyl ether (Ducsan, Korea) and hair was removed from the occipital region and the back of the mouse using depilatory cream (Reckitt Benckiser, France). After allowing micro wound healing for a day, 100 mg of mite antigen cream (Biostir, Inc. Japan) comprising Dermatophagoides farina, which causes atopic dermatitis, as a main ingredient was evenly applied on the ear, occipital region and back, 3 times a week (for 5 weeks, from week 9 to week 13). 2 hours before application of the mite antigen cream, 4% SDS solution was applied at the same area to increase transdermal absorption of the mite antigen cream by inducing the breakdown of skin fats and cuticle layer. From week 3 following the application, IgE value was measured to quantitate the degree of atopic dermatitis. Also during the drug treatment period (week 12 to week 13), 100 mg of the mite antigen cream was applied 3 times a week to prevent spontaneous healing of the atopic dermatitis.
In order to induce atopic dermatitis, 100 mg of mite antigen cream was applied on the ear, occipital region and back of NC/Nga mouse (9 to 11 weeks old), except for the negative control group, 3 times a week, 2 hours after the application of 4% SDS solution. Three weeks later, it was observed whether atopic dermatitis was induced by checking skin rash, erythema, cornification, or the like. Atopic dermatitis was induced in all groups except for the negative control group. For drug treatment and evaluation of therapeutic effect, mice were grouped into 12 groups, 6 oral administration groups and 6 topical application groups (each consisting of negative control group, positive control group, macelignan low conc. group, macelignan high conc. group, nutmeg extract low conc. group, and nutmeg extract high conc. group), with n=5 per cage. During the following drug treatment and evaluation period of 2 weeks (12 to 13 weeks old), the negative control groups, which had not been treated with 4% SDS solution and mite antigen cream, were treated with physiological saline (oral administration group) or base cream (topical application group) every day, and the positive control groups, which had been treated with 100 mg of mite antigen cream 2 hours after application of 4% SDS solution, 3 times every week, were treated with physiological saline (oral administration group) or base cream (topical application group). The oral administration groups were treated with 100 mg of mite antigen cream 2 hours after application of 4% SDS solution, 3 times every week, and were treated with macelignan or nutmeg extract at low concentration (50 mg/kg/day) or high concentration (150 mg/kg/day) every day. The topical application groups were treated with 100 mg of mite antigen cream 2 hours after application of 4% SDS solution, 3 times every week, and were treated with macelignan cream or nutmeg extract cream at low concentration (20 mg/kg/day) or high concentration (60 mg/kg/day) every day. Transepidermal water loss (TEWL), skin hydration and erythema index were measured one day before the end of the test. Serum was obtained by retro-orbital blood sampling. After the end of the test (14 weeks old) spleen and skin tissues from occipital region and back were sampled and stored at −70° C. ALN (axillary lymph node) was stored in DMEM containing 2% FBS (fetal bovine serum). The skin tissues were stored in 10% formalin solution.
After the end of the experiment, skin was isolated from the occipital region. Hematoxylin/eosin (H&E) staining was performed to examine change of inflammatory cells such as mast cells, neutrophils, eosinophils, etc. in the epidermis, dermis and keratinocytes and change of skin thickness. Toluidine blue staining was performed to selectively stain the mast cells, and congo red staining was performed to selectively stain the eosinophils.

[1] abbreviates: oral administration 50 and 150 mg/kg.
[2] abbreviates: topical application 20 and 60 mg/kg.

In the case of `COc1cc(C[C@H](C)[C@H](C)Cc2ccc3c(c2)OCO3)ccc1O` (single isomer, unassigned) [macelignan], under setting [1], the “Congo red staining: eosinophils” value is on record as “effect of decreasing eosinophils”; the “H&E staining: inflammatory cells and epidermal thickness” value was “effect of decreasing inflammatory cells and increased epidermal thickness”; the “Toluidine blue staining: mast cells” value was “effect of decreasing mast cells”. Also, under setting [2], the “Congo red staining: eosinophils” value is “effect of decreasing eosinophils”; the “H&E staining: inflammatory cells and epidermal thickness” value was “effect of decreasing inflammatory cells and increased epidermal thickness”; the “Toluidine blue staining: mast cells” value is given as “effect of decreasing mast cells”.

(Values after patent publication US8853264B2, “Use of lignan compounds for treating or preventing inflammatory disease” (Newtree Industry Co., Ltd., priority 2005, dated 2014).)
